Source: US8007782B2, “Combination bacteriolytic therapy for the treatment of tumors” (priority 2003, dated 2011)
Where a SMILES comes first, the peptide text is derived from it. [ ]: non-standard residue; d: D form. The star is where a group is joined. Dolaproine = CO[C@@H]([C@@H]1CCCN1)[C@@H](C)C(=O)O; Dil = CC[C@H](C)[C@H](NC)[C@@H](CC(=O)O)OC; NMe2Val = CC(C)[C@@H](C(=O)*)N(C)C

Assays:
[1] = system: HCT116 human colorectal cancer cells; assay: Tumorigenicity assay, HCT116 xenografts in nude mice; type: in vivo; details: nude mice; for Effect alone: agent alone
Excerpt: (§1) All animal protocols were designed in accordance with the Guide for the Care and Use of Laboratory Animals (NIH Publication 86-23) and were approved by the Johns Hopkins University Institutional Animal Care and Use Committee. Six to eight week old mice were implanted subcutaneously on one flank with 3 to 6 million cancer cells. Establishment of tumors of 150 to 500 mm3 took 8 to 21 days, depending on the cell type. C. novyi-NT spores (300×106) and anti-microtubule agents were generally administered by a single intravenous injection through the tail vein in a total volume of 300 to 500 ul phosphate-buffered saline (PBS). Quantitative assessment of tumor growth was performed by measuring subcutaneous tumor grafts (major and minor axis) using electronic calipers. Tumor volume was calculated using the equation: length×width2×0.5. Progression free survival was defined as the length of time following treatment before any increase in tumor volume was observed. Mice were considered “cured” if no tumor was evident three months after treatment. Animals were weighed at least twice a week and carefully observed for signs of toxicity every day for the first week following treatment and then twice a week thereafter. At least five mice were used for each treatment arm described in the Experimental Results.
The timing, route, and dose of agents are critical for the success of any experimental therapy. When two agents are combined, the number of variables that must be tested increases exponentially. To simplify interpretation of the comparisons between various anti-microtubule agents, pilot studies with representative drugs were performed.
Eighteen agents known to interact with microtubules were each tested in this manner in nude mice harboring xenografts of HCT116 human colorectal cancer cells. At least five mice harboring tumors of 150 to 500 mm3 in size were used for each experimental arm. Two classes of responses were noted. One type of response was characterized by a rapid hemorrhagic necrosis, observed only with agents that inhibited microtubule […] (FIG. 1A, B). The other type of response was characterized by a slow regression, observed with agents that stabilized microtubules (FIG. 2A, B).

[2] = Mortality following COBALT; type: in vivo, nude mice; details: deaths within one week, pooled xenograft models
Excerpt: as §1
(§2) This toxicity was observed only when the combination of C. novyi-NT spores and the drugs was administered and not with either the bacteria or the drugs alone. […] Though major tumor regressions were common, few mice died as a result of therapy (Table 2) No deaths occurred after treatment with the microtubule stabilizers plus C. novyi-NT, while 4% to 8% of mice treated with microtubule destabilizers plus C. novyi-NT died. The only other toxicity observed was transient weight loss (Table 3). Mice treated with the drugs alone lost ˜5 to 10% of their body weight within 7 days, while weight loss after treatment with C. novyi-NT plus these drugs varied from 8% to 18%. All weights recovered to pre-treatment levels within two weeks.

Weight loss after COBALT = type: in vivo, nude mice; details: drug dose 24.0 mg/kg; maximum average weight loss relative to weight one day prior to treatment; HCT116 xenografts
Excerpt: as §1, §2

[3] = 5 mg/kg × 1 (ip) with 3×108 C. novyi-NT spores iv
[4] = 10 mg/kg × 1 (ip) with 3×108 C. novyi-NT spores iv
[5] = 15 mg/kg × 1 (iv) with 3×108 C. novyi-NT spores iv
[6] = 20 mg/kg × 1 (iv) with 3×108 C. novyi-NT spores iv

COc1cc2c(c(OC)c1OC)-c1ccc(OC)c(=O)cc1[C@@H](NC(C)=O)CC2 [colchicine]
Effect with C. novyi-NT [1, 3]: +
Effect with C. novyi-NT [1, 4]: +
Effect with C. novyi-NT ([1]; 20 mg/kg × 1 (ip) with 3×108 C. novyi-NT spores iv): ++ (10% to 50% shrinkage in tumor volume relative to pre-treatment size)
Effect alone ([1]; 5 mg/kg × 1 (ip)): +
Effect alone ([1]; 10 mg/kg × 1 (ip)): +
Effect alone ([1]; 20 mg/kg × 1 (ip)): ++ (10% to 50% shrinkage in tumor volume relative to pre-treatment size)

CC[C@H](C)[C@@H]([C@@H](CC(=O)N1CCC[C@H]1[C@H](OC)[C@@H](C)C(=O)N[C@@H](Cc1ccccc1)C(=O)OC)OC)N(C)C(=O)[C@@H](NC(=O)[C@H](C(C)C)N(C)C)C(C)C [auristatin PHE] (NMe2Val-V[Dil][Dolaproine]F-OMe)
Effect with C. novyi-NT ([1]; 0.2 mg/kg × 1 (iv) with 3×108 C. novyi-NT spores iv): +
Effect alone ([1]; 0.2 mg/kg × 1 (iv)): 0

CC[C@]1(O)C[C@H]2CN(CCc3c([nH]c4ccccc34)[C@@](C(=O)OC)(c3cc4c(cc3OC)N(C=O)[C@H]3[C@@](O)(C(=O)OC)[C@H](OC(C)=O)[C@]5(CC)C=CCN6CC[C@]43[C@@H]65)C2)C1 [vincristine]
Effect with C. novyi-NT [1, 3]: 0
Effect with C. novyi-NT [1, 4]: +
Effect alone ([1]; 5 mg/kg × 1 (ip)): 0
Effect alone ([1]; 10 mg/kg × 1 (ip)): 0

CC[C@]1(O)C[C@@H]2CN(CCc3c([nH]c4ccccc34)[C@@](C(=O)OC)(c3cc4c(cc3OC)N(C)[C@H]3[C@@](O)(C(=O)OC)[C@H](OC(C)=O)[C@]5(CC)C=CCN6CC[C@]43[C@@H]65)C2)C1 [vinblastine]
Effect with C. novyi-NT [1, 3]: 0
Effect with C. novyi-NT [1, 4]: +
Effect alone ([1]; 5 mg/kg × 1 (ip)): 0
Effect alone ([1]; 10 mg/kg × 1 (ip)): +

C=CC=CC(C)C(OC(N)=O)C(C)C(O)C(C)CC=CC(C)C(O)C(C)C=CC(O)CC1OC(=O)C(C)C(O)C1C (single isomer, unassigned; (+)) [(+)-14-normethyldiscodermolide]
Effect with C. novyi-NT [1, 5]: +
Effect alone ([1]; 15 mg/kg × 1 (iv)): +

CC(=O)O[C@H]1C(=O)[C@@]2(C)[C@H]([C@H](OC(=O)c3ccccc3)[C@]3(O)C[C@H](OC(=O)[C@H](O)[C@@H](NC(=O)c4ccccc4)c4ccccc4)C(C)=C1C3(C)C)[C@]1(OC(C)=O)CO[C@@H]1C[C@@H]2O [paclitaxel]
Effect with C. novyi-NT [1, 5]: 0
Effect with C. novyi-NT ([1]; 30 mg/kg × 1 (iv) with 3×108 C. novyi-NT spores iv): +
Effect alone ([1]; 15 mg/kg × 1 (iv)): 0
Effect alone ([1]; 30 mg/kg × 1 (iv)): 0

C/C(=C\c1csc(C)n1)[C@@H]1C[C@@H]2O[C@]2(C)CCC[C@H](C)[C@H](O)[C@@H](C)C(=O)C(C)(C)[C@@H](O)CC(=O)O1 [epothilone B]
Effect with C. novyi-NT ([1]; 25 mg/kg QD × 4 (ip) with 3×108 C. novyi-NT spores): +

O=C(Nc1ccncc1)C(=O)c1cn(Cc2ccc(Cl)cc2)c2ccccc12 [D-24851]
Effect with C. novyi-NT ([1]; 25 mg/kg × 1 (ip) with 3×108 C. novyi-NT spores iv): +
Effect with C. novyi-NT ([1]; 100 mg/kg × 1 (ip) with 3×108 C. novyi-NT spores iv): +
Effect alone ([1]; 25 mg/kg × 1 (ip)): 0
Effect alone ([1]; 100 mg/kg × 1 (ip)): 0

CC[C@H](C)[C@@H]([C@@H](CC(=O)N1CCC[C@H]1[C@H](OC)[C@@H](C)C(=O)N[C@@H](Cc1ccccc1)c1nccs1)OC)N(C)C(=O)[C@@H](NC(=O)[C@H](C(C)C)N(C)C)C(C)C [dolastatin 10]
Effect with C. novyi-NT ([1]; 0.30 mg/kg × 1 (iv) with 3×108 C. novyi-NT spores iv): +++ (>50% shrinkage in tumor volume relative to pre-treatment size)
Effect with C. novyi-NT ([1]; 0.45 mg/kg × 1 (iv) with 3×108 C. novyi-NT spores iv): +++ (>50% shrinkage in tumor volume relative to pre-treatment size)
Effect alone ([1]; 0.30 mg/kg × 1 (iv)): 0
Effect alone ([1]; 0.45 mg/kg × 1 (iv)): 0

arsenic trioxide
Effect with C. novyi-NT [1, 4]: +
Effect alone ([1]; 10 mg/kg × 1 (ip)): 0

COc1ccc2c(c1OC)C(=O)O[C@@H]2[C@H]1c2c(cc3c(c2OC)OCO3)CCN1C [noscapine]
Effect with C. novyi-NT ([1]; 50 mg/kg × 1 (iv) with 3×108 C. novyi-NT spores iv): +
Effect with C. novyi-NT ([1]; 70 mg/kg × 1 (iv) with 3×108 C. novyi-NT spores iv): +
Effect alone ([1]; 50 mg/kg × 1 (iv)): 0
Effect alone ([1]; 70 mg/kg × 1 (iv)): 0

C=C/C=C\[C@H](C)[C@H](OC(N)=O)[C@@H](C)[C@H](O)[C@@H](C)C/C(C)=C\[C@H](C)[C@@H](O)[C@@H](C)/C=C\[C@@H](O)C[C@@H]1OC(=O)[C@H](C)[C@@H](O)[C@H]1C [discodermolide]
Effect with C. novyi-NT [1, 5]: ++++ (>20% cures)
Effect with C. novyi-NT [1, 6]: ++++ (>20% cures)
Effect alone ([1]; 15 mg/kg × 1 (iv)): ++ (10% to 50% shrinkage in tumor volume relative to pre-treatment size)
Effect alone ([1]; 20 mg/kg × 1 (iv)): ++ (10% to 50% shrinkage in tumor volume relative to pre-treatment size)

CC[C@H](C)[C@@H]([C@@H](CC(=O)N1CCC[C@H]1[C@H](OC)[C@@H](C)C(=O)NCCc1ccccc1)OC)N(C)C(=O)[C@@H](NC(=O)[C@H](C(C)C)N(C)C)C(C)C [auristatin PE]
Effect with C. novyi-NT ([1]; 2 (2.0) mg/kg × 1 (iv) with 3×108 C. novyi-NT spores iv): +
Effect alone ([1]; 2 (2.0) mg/kg × 1 (iv)): 0

CCC1=C[C@@H]2CN(C1)Cc1c([nH]c3ccccc13)[C@@](C(=O)OC)(c1cc3c(cc1OC)N(C)[C@H]1[C@@](O)(C(=O)OC)[C@H](OC(C)=O)[C@]4(CC)C=CCN5CC[C@]31[C@@H]54)C2 [vinorelbine]
# dead (treatment-related deaths) ([2]; drug dose 16.0 mg/kg): 0
# dead (treatment-related deaths) ([2]; drug dose 20.0 mg/kg): 0
# dead (treatment-related deaths) ([2]; drug dose 24.0 mg/kg): 0
Weight Loss (%) (Weight loss after COBALT): 8.3%
Effect with C. novyi-NT ([1]; 16 mg/kg × 1 (iv) with 3×108 C. novyi-NT spores iv): ++ (10% to 50% shrinkage in tumor volume relative to pre-treatment size)
Effect with C. novyi-NT [1, 6]: +++ (>50% shrinkage in tumor volume relative to pre-treatment size)
Effect with C. novyi-NT ([1]; 24 mg/kg × 1 (iv) with 3×108 C. novyi-NT spores iv): +++ (>50% shrinkage in tumor volume relative to pre-treatment size)
Effect alone ([1]; 16 mg/kg × 1 (iv)): +
Effect alone ([1]; 20 mg/kg × 1 (iv)): +
Effect alone ([1]; 24 mg/kg × 1 (iv)): +

COc1ccc(/C=C\c2cc(OC)c(OC)c(OC)c2)cc1OP(=O)(O)O [combretastatin A4P]
Effect with C. novyi-NT ([1]; 50 mg/kg × 1 (ip) with 3×108 C. novyi-NT spores iv): +
Effect with C. novyi-NT ([1]; 200 mg/kg × 1 (ip) with 3×108 C. novyi-NT spores iv): +
Effect alone ([1]; 50 mg/kg × 1 (ip)): 0
Effect alone ([1]; 200 mg/kg × 1 (ip)): +
